Here are results for three molecules from patent US20230414774A1, “ANTI-CLDN18.2 ANTIBODY, DRUG CONJUGATE, AND PREPARATION METHOD THEREFOR AND USE THEREOF” (CSPC MEGALITH BIOPHARMACEUTICAL CO., LTD., priority 2020, published 2023).

Experiment [1] concerns human gastric cancer NUGC-4-18.2 xenografts. The experiment can be described thus: In vivo efficacy, xenograft, cisplatin as reference. Set-up: species or system nude mice. Particulars: i.v., 6 mg/kg qw×3, day 20. The protocol: 2) In this experiment, nude mice with human gastric cancer NUGC-4-18.2 xenografts were used. When the tumor volume reached about 120 mm^3 (day 6 after inoculation), 64 animals with bulky xenografts were selected and divided into eight groups (on day 0) with tumor volume balancing among groups. Eight animals in individual groups were intravenously administered 0.9% sodium chloride injection (0.9% INJ NS, vehicle control group), SYJS001-ADC at 1, 2 and 4 mg/kg (qw×3), SYJS001-ADC at 4 and 8 mg/kg (single dose), SYJS001-mAb at 4 mg/kg (qw×3) and Cisplatin at 6 mg/kg (qw×3, once a week for 3 weeks), respectively. Tumor diameters were measured twice a week. Mice were weighed, and data were recorded. Tumor growth was dynamically observed by measuring tumor diameters at different times after dosing. At the end of the experiment on day 20, the mice were asphyxiated with carbon dioxide, and the tumors were peeled and weighed.

Experiment [2] has as its system human pancreatic cancer Bxpc3-18.2 xenografts. In words: In vivo efficacy, xenograft, gemcitabine as reference. Set-up: species or system nude mice. The settings on record: i.v., 50 mg/kg biw×4, day 28. How it is done: 1) In this experiment, nude mice with human pancreatic cancer Bxpc3-18.2 xenografts were used. When the tumor volume reached about 100 mm^3 (day 39 after inoculation), 48 animals with bulky xenografts were selected and divided into six groups (on day 0) with tumor volume balancing among groups. Eight animals in individual groups were intravenously administered 0.9% sodium chloride injection (0.9% INJ NS, vehicle control group), SYJS001-ADC at 2, 4 and 8 mg/kg (single dose), SYJS001-mAb (SYJS001 nude antibody) at 8 mg/kg (single dose) and Gemcitabine (GEM) at 50 mg/kg (biw×4, twice a week for 4 weeks), respectively. Tumor diameters were measured twice a week. Mice were weighed, and data were recorded. Tumor growth was dynamically observed by measuring tumor diameters at different times after dosing. At the end of the experiment on day 28, the mice were asphyxiated with carbon dioxide, and the tumors were peeled and weighed.

In experiment [3] the target is human CLDN18.2 on cells (human) (UniProt P56856). In words: flow cytometry on BxPC3-CLDN18.2 cells, ED50 comparison. On the technique in general: In flow cytometry, cells or beads pass a laser one at a time.

Take `N.N.[Cl][Pt][Cl]` [Cisplatin]: the “tumor weight suppression rate” value in experiment [1] is 66.5%. For the molecule `Nc1ccn([C@@H]2O[C@H](CO)[C@@H](O)C2(F)F)c(=O)n1` [Gemcitabine], the “tumor weight suppression rate” value in experiment [2] is 51.0%.

B1: SYJS001 monoclonal antibody (antibody, human IgG1, kappa, V domains shown)
VH: EVQLSESGGALVQPGESLRLSCAASGFTFSSYAMTWVRQAPGKGLEWVSSLSGSGRSTYYAASIKGRFTISRDNSKNTLYLQMSSLRAEDTAIYYCAKSLSYYHYYFDYWGQGTLVTVSS
VL: DIQLTQSPSFLSASVGDRVPITCRASQDISNYLAWYQQKPGKAPKLLIYSASTLQSGVPSRFSGSGSGTEFTLTISSLQPEDFASYHCQQVKTYPLTFGGGTKVEIKR
In turn, B1 gave a fold affinity against IMAB362 in experiment [3] of 2 fold.
